Source: patent US11014911B2, “CDK2 inhibitors” (Pfizer Inc., priority 2019, dated 2021)

Legend:
[1] = target: CDK2/Cyclin E1 full length (Homo sapiens (Human), UniProt P24941); assay: CDK2/Cyclin E1 full length mobility shift assay; assay type: biochemical
[2] = target: GSK3β (H350L) (Homo sapiens (Human), UniProt P49841); conditions: read-out: GSK3β Ki
Chain of GSK3β (H350L) (P49841 whole entry, stated change not applied): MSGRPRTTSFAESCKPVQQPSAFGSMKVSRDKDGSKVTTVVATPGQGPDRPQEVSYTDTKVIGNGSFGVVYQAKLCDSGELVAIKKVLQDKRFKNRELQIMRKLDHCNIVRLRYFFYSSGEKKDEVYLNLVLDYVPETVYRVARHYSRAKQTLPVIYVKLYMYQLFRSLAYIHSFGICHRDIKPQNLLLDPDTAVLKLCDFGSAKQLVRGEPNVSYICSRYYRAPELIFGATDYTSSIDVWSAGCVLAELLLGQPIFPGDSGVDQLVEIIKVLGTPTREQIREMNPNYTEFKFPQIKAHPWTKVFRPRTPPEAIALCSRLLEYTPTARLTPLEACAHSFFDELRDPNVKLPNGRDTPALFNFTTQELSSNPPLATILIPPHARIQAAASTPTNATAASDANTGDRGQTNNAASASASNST
Method: The assay was initiated with the addition of ATP, following 15 minutes pre-incubation of enzyme and inhibitor at room temperature in the reaction mixture. The reaction was stopped after 30 minutes at room temperature by the addition of 50 μL of 80 mM EDTA.

| Ki [1] [nM] | Ki [2] [nM] | Compound |
| --- | --- | --- |
| 2.29 | > 191 | CCCNC(=O)O[C@@H]1CC[C@H](c2cc(NC(=O)c3cc(C)nn3C)n[nH]2)C1 [Example 173, (1R,3S)-3-(3-{[(1,3-dimethyl-1H-pyrazol-5-yl)carbonyl]amino}-1H-pyrazol-5-yl)cyclopentyl propylcarbamate] |
| 0.23 | 7.06 | CC1(C)CCCN1C(=O)O[C@@H]1CC[C@H](c2cc(NC(=O)Cc3cnco3)n[nH]2)C1 [Example 138] |
| 0.78 | 8.57 | CO[C@@H]1CN(C(=O)O[C@@H]2CC[C@H](c3cc(NC(=O)Cc4cc(C)no4)n[nH]3)C2)[C@H]1C [Example 618, (1R,3S)-3-(3-{[(3-methyl-1,2-oxazol-5-yl)acetyl]amino}-1H-pyrazol-5-yl)cyclopentyl (2S,3R)-3-methoxy-2-methylazetidine-1-carboxylate] |
| 0.81 | 26.1 | CCCNC(=O)O[C@@H]1CC[C@H](c2cc(NC(=O)Cc3cnc(OC)s3)n[nH]2)C1 [Example 190, (1R,3S)-3-(3-{[(2-methoxy-1,3-thiazol-5-yl)acetyl]amino}-1H-pyrazol-5-yl)cyclopentyl propylcarbamate] |
| 0.67 | 148 | CC[C@H](C)NC(=O)O[C@@H]1CC[C@H](c2cc(NC(=O)c3ccnn3CCN(C)C)[nH]n2)C1 [Example 356, (1R,3S)-3-{5-[({1-[2-(dimethylamino)ethyl]-1H-pyrazol-5-yl}carbonyl)amino]-1H-pyrazol-3-yl}cyclopentyl (2S)-butan-2-ylcarbamate] |
| 1.58 | 94.4 | CC[C@H](C)NC(=O)O[C@@H]1CC[C@H](c2cc(NC(=O)Cc3cc(C)nn3C)n[nH]2)C1 [Example 338, (1R,3S)-3-(3-{[(1,3-dimethyl-1H-pyrazol-5-yl)acetyl]amino}-1H-pyrazol-5-yl)cyclopentyl (2S)-butan-2-ylcarbamate] |
| 0.19 | 5.65 | COc1ccc(CC(=O)Nc2cc([C@H]3CC[C@@H](OC(=O)NC(C)(C)C)C3)[nH]n2)cn1 [Example 114] |
| 1.44 | 8.58 | C[C@]1(O)CC[C@H](NC(=O)O[C@H]2CC[C@@H](c3cc(NC(=O)Cc4ccccc4)n[nH]3)C2)CC1 [Example 559, (1S,3R)-3-{3-[(phenylacetyl)amino]-1H-pyrazol-5-yl}cyclopentyl (trans-4-hydroxy-4-methylcyclohexyl)carbamate] |
| 1.03 | 9.64 | CCCNC(=O)O[C@H]1CC[C@@H](c2cc(NC(=O)Cc3ccc(OC)cn3)n[nH]2)C1 [Example 186, (1S,3R)-3-(3-{[(5-methoxypyridin-2-yl)acetyl]amino}-1H-pyrazol-5-yl)cyclopentyl propylcarbamate] |
| 0.47 | 12.2 | Cc1cc(CC(=O)Nc2cc([C@H]3CC[C@@H](OC(=O)N4[C@@H](C)COC[C@@H]4C)C3)[nH]n2)on1 [Example 648, (1R,3S)-3-(3-{[(3-methyl-1,2-oxazol-5-yl)acetyl]amino}-1H-pyrazol-5-yl)cyclopentyl (3S,5S)-3,5-dimethylmorpholine-4-carboxylate] |
| 1.35 | > 95.3 | CCCNC(=O)O[C@H]1CC[C@@H](c2cc(NC(=O)c3ccnc(OC)c3)n[nH]2)C1 [Example 184, (1S,3R)-3-(3-{[(2-methoxypyridin-4-yl)carbonyl]amino}-1H-pyrazol-5-yl)cyclopentyl propylcarbamate] |
| 1.55 | 48.6 | CCNC(=O)O[C@@H]1CC[C@H](c2cc(NC(=O)Cc3ccc(OC)cc3)n[nH]2)C1 [Example 230, (1R,3S)-3-(3-{[(4-methoxyphenyl)acetyl]amino}-1H-pyrazol-5-yl)cyclopentyl ethylcarbamate] |
| 0.11 | 2.45 | CCCNC(=O)O[C@H]1CC[C@@H](c2cc(NC(=O)Cc3ccc4[nH]c(C)nc4c3)n[nH]2)C1 [Example 23] |
| 0.92 | 20.8 | C[C@H]1CCCN1C(=O)O[C@@H]1CC[C@H](c2cc(NC(=O)Cc3ccon3)n[nH]2)C1 [Example 628, (1R,3S)-3-{3-[(1,2-oxazol-3-ylacetyl)amino]-1H-pyrazol-5-yl}cyclopentyl (2S)-2-methylpyrrolidine-1-carboxylate] |

The remaining lines, values behind:

| Compound | Ki [1] [nM] | Ki [2] [nM] |
| --- | --- | --- |
| CC[C@H](C)NC(=O)O[C@@H]1CC[C@H](c2cc(NC(=O)Cc3cnc(C(F)(F)F)cn3)n[nH]2)C1 [Example 363, (1R,3S)-3-[3-({[5-(trifluoromethyl)pyrazin-2-yl]acetyl}amino)-1H-pyrazol-5-yl]cyclopentyl (2S)-butan-2-ylcarbamate] | 0.35 | 52 |
| CC[C@H](C)NC(=O)O[C@@H]1CC[C@H](c2cc(NC(=O)Cc3ccc4nc(C)cn4n3)n[nH]2)C1 [Example 47] | 0.11 | 10.2 |
| Cc1cnc(CC(=O)Nc2cc([C@H]3CC[C@@H](OC(=O)N4CCC[C@@H]4C)C3)[nH]n2)o1 [Example 635, (1R,3S)-3-(3-{[(5-methyl-1,3-oxazol-2-yl)acetyl]amino}-1H-pyrazol-5-yl)cyclopentyl (2S)-2-methylpyrrolidine-1-carboxylate] | 0.53 | 16.3 |
| COc1ccc(S(C)(=O)=O)c(CC(=O)Nc2cc([C@H]3CC[C@@H](OC(=O)NC4(C)CC4)C3)[nH]n2)c1 [Example 447, (1R,3S)-3-[3-({[5-methoxy-2-(methylsulfonyl)phenyl]acetyl}amino)-1H-pyrazol-5-yl]cyclopentyl (1-methylcyclopropyl)carbamate] | 0.36 | > 47.6 |
| CCCNC(=O)O[C@@H]1CC[C@H](c2cc(NC(=O)Cc3cnco3)n[nH]2)C1 [Example 167, (1R,3S)-3-{3-[(1,3-oxazol-5-ylacetyl)amino]-1H-pyrazol-5-yl}cyclopentyl propylcarbamate] | 1.4 | 33.9 |
| CCN(C)C(=O)O[C@@H]1CC[C@H](c2cc(NC(=O)Cc3cnc(C)s3)n[nH]2)C1 [Example 239, (1R,3S)-3-(3-{[(2-methyl-1,3-thiazol-5-yl)acetyl]amino}-1H-pyrazol-5-yl)cyclopentyl ethyl(methyl)carbamate] | 1.15 | 9.44 |
| CC[C@H](C)NC(=O)O[C@@H]1CC[C@H](c2cc(NC(=O)Cc3cncc(C)n3)n[nH]2)C1 [Example 336, (1R,3S)-3-(3-{[(6-methylpyrazin-2-yl)acetyl]amino}-1H-pyrazol-5-yl)cyclopentyl (2S)-butan-2-ylcarbamate] | 0.39 | 53.5 |
| COc1cc(CC(=O)Nc2cc([C@H]3CC[C@@H](OC(=O)N[C@@H](C)[C@@H](C)F)C3)[nH]n2)ccn1 [Example 101] | 0.28 | 20.9 |
| CC(C)NC(=O)O[C@@H]1CC[C@H](c2cc(NC(=O)c3cnnn3C)n[nH]2)C1 [Example 262, (1R,3S)-3-(3-{[(1-methyl-1H-1,2,3-triazol-5-yl)carbonyl]amino}-1H-pyrazol-5-yl)cyclopentyl propan-2-ylcarbamate] | 0.64 | > 47.6 |
| CC1(C)CCN1C(=O)O[C@@H]1CC[C@H](c2cc(NC(=O)Cc3ccccc3S(C)(=O)=O)n[nH]2)C1 [Example 142] | 0.22 | 17.7 |
| COc1cc(CC(=O)Nc2cc([C@@H]3CC[C@H](OC(=O)N[C@H]4CC[C@](C)(O)CC4)C3)[nH]n2)ccn1 [Example 569, (1S,3R)-3-(3-{[(2-methoxypyridin-4-yl)acetyl]amino}-1H-pyrazol-5-yl)cyclopentyl (trans-4-hydroxy-4-methylcyclohexyl)carbamate] | 1.25 | 4.31 |
| Cc1cc(CC(=O)Nc2cc([C@H]3CC[C@@H](OC(=O)N4CCCC4(C)C)C3)[nH]n2)on1 [Example 134] | 0.12 | 7.12 |
| COc1ccc(CC(=O)Nc2cc([C@H]3CC[C@@H](OC(=O)N[C@H]4CC[C@@](C)(O)CC4)C3)[nH]n2)cc1 [Example 566, (1R,3S)-3-(3-{[(4-methoxyphenyl)acetyl]amino}-1H-pyrazol-5-yl)cyclopentyl (cis-4-hydroxy-4-methylcyclohexyl)carbamate] | 0.79 | 37.6 |
| CC[C@H](C)NC(=O)O[C@@H]1CC[C@H](c2cc(NC(=O)Cc3cncc(OC)n3)n[nH]2)C1 [Example 348, (1R,3S)-3-(3-{[(6-methoxypyrazin-2-yl)acetyl]amino}-1H-pyrazol-5-yl)cyclopentyl (2S)-butan-2-ylcarbamate] | 0.59 | 54.1 |
| CC(C)NC(=O)O[C@H]1CC[C@@H](c2cc(NC(=O)c3cnnn3C)n[nH]2)C1 [Example 261, (1S,3R)-3-(3-{[(1-methyl-1H-1,2,3-triazol-5-yl)carbonyl]amino}-1H-pyrazol-5-yl)cyclopentyl propan-2-ylcarbamate] | 1 | 121 |
| C[C@H](CC(F)(F)F)NC(=O)O[C@@H]1CC[C@H](c2cc(NC(=O)Cc3cnn(C)c3)n[nH]2)C1 [Example 394, (1R,3S)-3-(3-{[(1-methyl-1H-pyrazol-4-yl)acetyl]amino}-1H-pyrazol-5-yl)cyclopentyl [(2R)-4,4,4-trifluorobutan-2-yl]carbamate] | 0.42 | 42.7 |
| Cc1ccc(CC(=O)Nc2cc([C@@H]3CC[C@H](OC(=O)N[C@H]4CC[C@H](O)CC4)C3)[nH]n2)nc1 [Example 549, (1S,3R)-3-(3-{[(5-methylpyridin-2-yl)acetyl]amino}-1H-pyrazol-5-yl)cyclopentyl (trans-4-hydroxycyclohexyl)carbamate] | 0.9 | 3.24 |
| CC[C@H](C)NC(=O)O[C@@H]1CC[C@H](c2cc(NC(=O)Cc3ccc(COC)cc3S(C)(=O)=O)[nH]n2)C1 [Example 376, (1R,3S)-3-[5-({[4-(methoxymethyl)-2-(methylsulfonyl)phenyl]acetyl}amino)-1H-pyrazol-3-yl]cyclopentyl (2S)-butan-2-ylcarbamate] | 0.4 | 99.3 |
| Cc1cnc(CC(=O)Nc2cc([C@H]3CC[C@@H](OC(=O)NC(C)(C)C)C3)[nH]n2)o1 [Example 11, (1R,3S)-3-(3-{[(5-methyl-1,3-oxazol-2-yl)acetyl]amino}-1H-pyrazol-5-yl)cyclopentyl tert-butylcarbamate] | 0.32 | 36.2 |
